US12653894B2, “Degradation of FAK or FAK and ALK by conjugation of FAK and ALK inhibitors with E3 ligase ligands and methods of use” (DANA-FARBER CANCER INSTITUTE, INC., priority 2018, dated 2026)
Entries after “also recorded” stand apart in the source; their conditions may differ.

How the values were obtained:
[1] = target: T1, FAK (Mus musculus, UniProt P34152); assay: In vivo FAK degradation in mouse livers; details: nude mice, 10 to 50 mpk intraperitoneal, three consecutive days, 4 hours after final treatment
T1 construct: from tissue; host or cells: liver of nude mice
T1 sequence (P34152 whole entry): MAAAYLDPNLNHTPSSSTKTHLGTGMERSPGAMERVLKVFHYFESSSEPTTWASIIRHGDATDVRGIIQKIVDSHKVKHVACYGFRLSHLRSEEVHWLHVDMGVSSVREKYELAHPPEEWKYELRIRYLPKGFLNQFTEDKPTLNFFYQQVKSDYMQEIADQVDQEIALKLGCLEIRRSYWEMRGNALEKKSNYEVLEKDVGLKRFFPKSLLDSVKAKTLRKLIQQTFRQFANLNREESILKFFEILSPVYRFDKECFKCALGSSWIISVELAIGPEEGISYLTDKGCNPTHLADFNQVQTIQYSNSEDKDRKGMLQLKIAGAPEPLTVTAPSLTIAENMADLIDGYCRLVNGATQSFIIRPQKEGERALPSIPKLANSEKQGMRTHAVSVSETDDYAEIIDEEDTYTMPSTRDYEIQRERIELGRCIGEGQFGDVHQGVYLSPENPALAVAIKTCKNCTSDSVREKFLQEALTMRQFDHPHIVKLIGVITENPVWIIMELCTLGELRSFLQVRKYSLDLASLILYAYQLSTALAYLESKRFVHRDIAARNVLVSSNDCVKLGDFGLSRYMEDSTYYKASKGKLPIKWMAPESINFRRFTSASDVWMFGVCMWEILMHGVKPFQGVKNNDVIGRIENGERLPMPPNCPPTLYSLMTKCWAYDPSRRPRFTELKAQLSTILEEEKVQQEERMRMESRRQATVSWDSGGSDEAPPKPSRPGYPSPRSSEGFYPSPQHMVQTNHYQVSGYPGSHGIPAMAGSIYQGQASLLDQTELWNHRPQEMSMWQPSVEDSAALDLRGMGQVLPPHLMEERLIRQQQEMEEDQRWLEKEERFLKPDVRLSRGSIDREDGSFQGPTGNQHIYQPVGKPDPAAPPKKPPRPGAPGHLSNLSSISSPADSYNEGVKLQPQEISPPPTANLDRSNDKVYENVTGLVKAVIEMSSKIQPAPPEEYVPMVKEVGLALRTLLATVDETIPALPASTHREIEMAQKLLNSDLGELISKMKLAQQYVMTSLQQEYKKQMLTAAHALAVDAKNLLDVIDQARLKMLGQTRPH
Description: (§1) Mice were treated for three consecutive days and assessments were performed 4 hours after the third and final treatment.
(§2) PA-TU-8988T cells were implanted into the flanks of nude mice. After tumors had formed, mice were treated with indicated FAK degraders for three consecutive days via intraperitoneal administration and sacrificed 4 hours after the third and final treatment. Tumors and livers were harvested and lysed in RIPA on ice for 60 minutes and lysates were clarified by centrifugation. Immunoblotting for FAK was performed to evaluate changes in protein levels upon FAK degrader administration. All samples were run with equal total protein content and immunoblotting was performed using antibodies that detect total FAK protein as well as α-Tubulin as a loading control. Fluorescently labelled infrared secondary antibodies that enable detection using an Odyssey® CLx Imager was employed to evaluate protein levels.

[2] = target: T2, FAK (Homo sapiens, UniProt Q05397); assay: FAK degradation by immunoblot in H3122 cells; format: cell-based; set-up: endogenous in cells; host or cells: H3122; details: 10 nM to 1000 nM, 16 hours (compound 10) or 24 hours (compounds 1, 9)
T2 sequence (Q05397 whole entry): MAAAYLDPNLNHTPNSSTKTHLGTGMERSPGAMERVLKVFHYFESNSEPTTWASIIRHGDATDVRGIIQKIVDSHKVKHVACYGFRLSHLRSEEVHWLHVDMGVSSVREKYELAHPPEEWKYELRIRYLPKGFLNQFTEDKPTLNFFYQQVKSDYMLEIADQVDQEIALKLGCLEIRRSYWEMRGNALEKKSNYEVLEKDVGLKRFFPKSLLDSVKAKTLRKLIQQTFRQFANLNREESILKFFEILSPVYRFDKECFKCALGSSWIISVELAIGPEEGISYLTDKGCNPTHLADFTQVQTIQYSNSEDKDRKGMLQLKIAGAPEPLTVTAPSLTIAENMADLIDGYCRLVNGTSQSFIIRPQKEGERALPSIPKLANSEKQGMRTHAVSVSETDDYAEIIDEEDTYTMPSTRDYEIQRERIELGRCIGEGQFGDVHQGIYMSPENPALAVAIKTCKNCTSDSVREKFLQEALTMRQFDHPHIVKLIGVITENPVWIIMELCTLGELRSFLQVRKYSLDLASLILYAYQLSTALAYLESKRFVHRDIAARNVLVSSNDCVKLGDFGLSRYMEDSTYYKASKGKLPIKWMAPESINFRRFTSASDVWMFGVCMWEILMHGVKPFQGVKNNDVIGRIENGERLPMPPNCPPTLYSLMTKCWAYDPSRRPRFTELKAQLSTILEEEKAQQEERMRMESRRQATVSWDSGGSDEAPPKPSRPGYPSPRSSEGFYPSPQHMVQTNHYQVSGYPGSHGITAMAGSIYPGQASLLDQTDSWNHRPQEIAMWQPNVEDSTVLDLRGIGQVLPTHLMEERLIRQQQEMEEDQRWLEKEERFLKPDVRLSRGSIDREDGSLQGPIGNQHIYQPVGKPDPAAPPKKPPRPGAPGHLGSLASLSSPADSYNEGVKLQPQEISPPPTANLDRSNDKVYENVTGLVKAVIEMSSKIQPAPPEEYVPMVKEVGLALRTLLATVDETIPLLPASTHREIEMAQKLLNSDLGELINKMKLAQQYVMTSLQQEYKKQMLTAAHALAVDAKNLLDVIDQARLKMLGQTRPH

[3] = target: T2, FAK; assay: FAK degradation by immunoblot in PA-TU-8988T cells; format: cell-based; set-up: endogenous in cells; host or cells: PA-TU-8988T; details: PA-TU-8988T cells, 4 hours; for Degradation of FAK protein (in words): 0.1 nM to 1000 nM, immunoblot; for inhibition at 0.01 µM / inhibition at 0.1 µM: PaTu 8988t, total FAK protein, vs DMSO; for inhibition at 0.01 µM: 10 nM, read-out: Degradation at 10 nM; for inhibition at 0.1 µM: 100 nM, read-out: Degradation at 100 nM
Description: (§3) Immunoblotting for FAK was performed to evaluate changes in protein levels upon FAK degrader treatment. All samples were run with equal total protein content and immunoblotting was performed using antibodies that detect total FAK protein as well as GAPDH or α-Tubulin as a loading control. Fluorescently labelled infrared secondary antibodies that enable detection using an Odyssey® CLx Imager was employed to evaluate protein levels.
FAK degraders were evaluated in immunoblot assays to determine the effective dose required to achieve FAK protein loss. Immunoblots for FAK protein were normalized relative to the loading control and percent degradation was evaluated compared to DMSO treatment.

[4] = target: T2, FAK; assay: In vivo FAK degradation in PA-TU-8988T xenograft tumors; set-up: endogenous in cells; host or cells: PA-TU-8988T; details: nude mice, 10 to 50 mpk intraperitoneal, three consecutive days, 4 hours after final treatment
Description: as §1, §2

[5] = target: T3, ALK (Homo sapiens, UniProt Q9UM73); assay: ALK degradation by immunoblot in H3122 cells; format: cell-based; set-up: endogenous in cells; host or cells: H3122; the other entry of the earlier key: EML4 (Q9HC35, Echinoderm microtubule-associated protein-like 4); details: 10 nM to 1000 nM, 16 hours (compound 10) or 24 hours (compounds 1, 9)
Target sequence in this assay (Q9UM73 with tags, fused parts or gaps): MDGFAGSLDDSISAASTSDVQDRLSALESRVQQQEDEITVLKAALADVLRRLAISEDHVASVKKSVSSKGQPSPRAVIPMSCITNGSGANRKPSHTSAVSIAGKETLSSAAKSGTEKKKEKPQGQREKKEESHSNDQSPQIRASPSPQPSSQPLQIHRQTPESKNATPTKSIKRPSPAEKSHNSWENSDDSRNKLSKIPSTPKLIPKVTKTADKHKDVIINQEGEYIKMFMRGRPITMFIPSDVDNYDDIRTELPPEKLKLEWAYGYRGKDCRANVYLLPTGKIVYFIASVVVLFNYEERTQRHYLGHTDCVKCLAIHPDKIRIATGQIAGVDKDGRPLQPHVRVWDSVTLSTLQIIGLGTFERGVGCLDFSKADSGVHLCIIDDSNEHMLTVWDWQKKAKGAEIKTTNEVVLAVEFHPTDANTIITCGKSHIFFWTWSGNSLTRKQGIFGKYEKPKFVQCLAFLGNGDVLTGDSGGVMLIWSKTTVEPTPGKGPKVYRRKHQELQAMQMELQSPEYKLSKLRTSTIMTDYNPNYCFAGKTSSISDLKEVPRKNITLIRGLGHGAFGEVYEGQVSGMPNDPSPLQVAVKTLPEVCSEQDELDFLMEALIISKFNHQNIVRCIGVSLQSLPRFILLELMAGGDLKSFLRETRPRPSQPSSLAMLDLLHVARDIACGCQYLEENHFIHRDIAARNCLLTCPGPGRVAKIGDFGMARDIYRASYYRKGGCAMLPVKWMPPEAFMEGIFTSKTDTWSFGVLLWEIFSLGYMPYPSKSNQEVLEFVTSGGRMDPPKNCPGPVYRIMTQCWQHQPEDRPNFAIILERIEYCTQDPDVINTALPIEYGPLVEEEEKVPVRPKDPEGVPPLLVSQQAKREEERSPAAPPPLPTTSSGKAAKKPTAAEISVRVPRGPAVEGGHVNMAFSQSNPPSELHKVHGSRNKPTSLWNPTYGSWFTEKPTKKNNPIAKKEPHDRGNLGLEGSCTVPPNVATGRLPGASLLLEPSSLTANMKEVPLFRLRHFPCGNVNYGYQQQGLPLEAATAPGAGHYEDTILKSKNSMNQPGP
Target sequence in this assay (Q96SW2 whole entry partner): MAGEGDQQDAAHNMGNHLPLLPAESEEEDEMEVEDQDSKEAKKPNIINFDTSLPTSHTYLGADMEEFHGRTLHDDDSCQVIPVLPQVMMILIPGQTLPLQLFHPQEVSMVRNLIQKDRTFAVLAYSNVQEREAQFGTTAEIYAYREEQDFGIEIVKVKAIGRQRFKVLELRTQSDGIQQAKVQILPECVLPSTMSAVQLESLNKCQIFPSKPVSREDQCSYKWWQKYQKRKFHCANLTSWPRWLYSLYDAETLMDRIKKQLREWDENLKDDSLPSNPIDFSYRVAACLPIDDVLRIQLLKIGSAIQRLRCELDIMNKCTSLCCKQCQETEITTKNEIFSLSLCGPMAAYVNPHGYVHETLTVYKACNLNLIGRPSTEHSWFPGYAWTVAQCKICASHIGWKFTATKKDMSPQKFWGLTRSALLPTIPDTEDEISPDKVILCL

[6] = target: T2, FAK; assay: In vitro kinase assay (Life Technologies), FAK; details: ATP concentration = Km, duplicate; read-out: Biochemical IC50 FAK
Description: (§4) In vitro kinase assays with inventive compound 13 and VS-4718 were performed by Life Technologies™ in duplicate at an ATP concentration=Km for each indicated kinase. The results are summarized in Table 2 and indicate that inventive compound 13 maintained potent FAK activity, with improved activity on ALK as compared to VS-4718.

[7] = system: kinome; assay: KINOMEscan competition binding assays; details: 1000 nM, compared to VS-4718
Description: KINOMEscan® competition binding assays with inventive compound 13 and VS-4718 were performed by DiscovrX at 1000 nM. […] Additionally, despite the observed activity of compound 13 on ALK, degradation of ALK with compound 9 was not observed (FIG. 6B).

[8] = target: T3, ALK; assay: In vitro kinase assay (Life Technologies), ALK; set-up: purchased Life Technologies; details: ATP concentration = Km, duplicate; read-out: Biochemical IC50 ALK
Description: as §4

[9] = target: T2, FAK; assay: Rescue of compound 9-induced FAK degradation in PA-TU-8988T cells after pre-treatment; format: cell-based; set-up: endogenous in cells; host or cells: PA-TU-8988T; details: pre-treatment 2 hours (0.5 μM carfilzomib, 1.0 μM MLN4924, 10 μM lenalidomide, 10 μM compound 13), then 10 nM compound 9 for 4 hours
Description: as §3, with “PA-TU-8988T cells were treated with FAK degraders or indicated inhibitors for four hours at the indicated doses. After four hours, PA-TU-8988T cells were lysed in radioimmunoprecipitation assay (RIPA) buffer (Thermo Scientific™) on ice for 60 minutes and lysates were clarified by centrifugation. Immunoblotting” for “Immunoblotting”

Row | Degradation of FAK protein in mouse livers [1] | Degradation of FAK protein in H3122 cells (in words) [2] | inhibition at 0.01 µM [3] | inhibition at 0.1 µM [3] | Degradation of FAK protein in PA-TU-8988T xenograft tumors [4] | IC50 [6] | Kinome-wide selectivity [7] | IC50 [8] | SMILES | Degradation of FAK protein (in words) [3] | Degradation of ALK protein in H3122 cells (in words) [5] | Rescue of FAK degradation induced by compound 9 [9]
1 | pronounced degradation of FAK protein | pronounced degradation of FAK protein | 85 to 100% | 85 to 100% | pronounced degradation of FAK protein |  |  |  | CNC(=O)c1ccccc1Nc1cc(Nc2cc(C)c(C3CCN(CCCCCCNC(=O)COc4cccc5c4C(=O)N(C4CCC(=O)NC4=O)C5=O)CC3)cc2OC(C)C)ncc1C(F)(F)F (centres unmarked) [Compound 9, 2-((2-((4-(1-(6-(2-((2-(2,6-dioxopiperidin-3-yl)-1,3-dioxoisoindolin-4-yl)oxy)acetamido)hexyl)piperidin-4-yl)-2-isopropoxy-5-methylphenyl)amino)-5-(trifluoromethyl)pyridin-4-yl)amino)-N-methylbenzamide] | rapid and pronounced degradation of FAK protein | do not show degradation of ALK; also recorded: not observed | 
2 |  |  | 0 to 24% | 0 to 24% |  | 0.021 µM | improved kinome-wide selectivity | 0.0263 µM | CNC(=O)c1ccccc1Nc1cc(Nc2cc(C)c(C3CCNCC3)cc2OC(C)C)ncc1C(F)(F)F [Compound 13] | did not induce degradation of FAK protein |  | rescued the degradation induced by compound 9
